Where “and” joins values, the source holds several entries; their conditions need not be identical. Equal entries are not always repeated. Where two headings read alike, the source gives them in different places. Values belong to the molecule of their own block, whether it stands above or below them. Ends that are not written are not given here. * marks the point of attachment. FITC = O=C1OC2(c3ccc(O)cc3Oc3cc(O)ccc32)c2ccc(NC(=S)*)cc21
Legend:
KIX domain of mouse CBP [1] = biological target: T1, KIX domain of mouse CBP (Mus musculus, UniProt P45481); assay: Stopped-flow anisotropy kinetics, temperature dependence; assay type: binding
T1 construct: KIX domain of mouse CBP (Uniprot 45481, residues 586–672); hexahistidine tag with thrombin cleavage site (N, cleaved yes); made in house; host or cells: Escherichia coli C41 (DE3)
T1 sequence (P45481 586-672): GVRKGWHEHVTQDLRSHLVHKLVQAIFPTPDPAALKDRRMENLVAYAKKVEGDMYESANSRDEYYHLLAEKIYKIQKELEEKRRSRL
Protocol: The synthetic gene for the KIX domain of mouse CBP (Uniprot 45481, residues 586–672) was obtained from Genscript. The gene was inserted into a modified version of the pRSET A vector that encodes an N-terminal hexahistidine tag with a thrombin cleavage site between the tag and the protein. Protein expression was carried out in Escherichia coli C41 (DE3) grown in 2xTY media at 37 °C. Expression was induced once the cells reached an optical density of 0.4–0.6 AU at 600 nm, by adding IPTG to a final concentration of 0.1 mM and reducing the temperature to 18 °C. The cells were grown overnight and harvested by centrifugation. […] Bound protein was eluted with 250 mM imidazole, and the his-tag cleaved by overnight incubation with thrombin at room temperature. The protein was further purified by gel filtration using a Superdex G75 column in pH 7.4 100 mM sodium phosphate buffer. For ionic strength studies, KIX protein was buffer exchanged and stored in ddH2O. The concentration of KIX stocks was determined using an extinction coefficient of 12 009 M^–1 cm^–1 at 280 nm obtained by the method of Gill von Hippel.[18]
N-terminally labeled FITC-cMyb peptide (Uniprot P06876, residues 291–315) was purchased from Biomatik. 1 mg aliquots were dissolved at 1–2 mg/mL in ddH2O as required. The stock concentration was determined from the absorbance at 493 nm of a 20-fold dilution into biophysical buffer, using an extinction coefficient of 75 000 M^–1 cm^–1. Sodium phosphate, MOPS, and sodium chloride were purchased from Sigma. […]
(§1) Association kinetics were monitored by following the change in anisotropy of FITC-cMyb on binding using a SX20 stopped-flow spectrometer (Applied Photophysics) with an FP1 fluorescence polarization accessory. […] Anisotropy values reported from stopped-flow have not been corrected for background fluorescence.
In temperature studies, KIX solutions of various concentrations were mixed 1:1 with 1 μM FITC-cMyb. […] Dissociation rate constants (koff) were calculated from the relation koff = Kdkon, which is appropriate for two-state bimolecular reactions (see Results). […]

KIX domain of mouse CBP [2] = biological target: T1, KIX domain of mouse CBP; assay: Stopped-flow anisotropy kinetics, ionic strength dependence (MOPS); assay type: binding
Protocol: Two separate buffer types were utilized in these studies. First, 100 mM sodium phosphate buffer, pH 7.4, the pH of which is relatively insensitive to temperature changes, was used for the temperature studies. Second, 20 mM MOPS (pH 7.30 ± 0.02 at 10 °C) with a range of sodium chloride concentrations was used in ionic strength studies. MOPS buffers in the same range as phosphate but has a lower ionic strength because of its lower valency, enabling a larger range of ionic strengths to be investigated. We observed that the rate of association was slightly lower in phosphate buffer, considering our estimates of its ionic strength. In addition, 0.05% tween-20 was included in all biophysical buffers to avoid nonspecific interactions with plastic-ware.
In preparing solutions for kinetic assays, dilutions of KIX and FITC-cMyb stocks were weighed, so that accurate concentrations (accounting for solution density) were obtained.
as §1, with “fluorescence. […]” for “fluorescence.”
The variation in association rate constant with ionic strength (I) was modeled with a Debye–Huckel-like approximation that has been determined empirically (eq 4).[24] […]

[3] = cited from earlier work
Protocol: The charge on KIX and cMyb at pH 7.4 was estimated using average pKa values reported for amino acids in globular proteins and model peptides.[54] The charge for FITC-cMyb was corrected to account for N-terminal addition of FITC. At pH 7.3–7.4 and 25 °C, fluoroscein exists predominantly as a dianion (∼90%), with some anion (∼10%), the equilibrium between the two species being described by a protolytic constant of 6.43.[27]

[4] = Circular dichroism, secondary structure; assay type: physicochemical; details: CD
Protocol: Circular dichroism (CD) scans were performed with an Applied Photophysics Chirascan, in cuvettes of 1 or 0.2 mm path length. In mixing experiments, individual solutions of FITC-cMyb and KIX in pH 7.4 100 mM sodium phosphate (0.05% tween-20) were prepared, and aliquots removed for mixing in a 1:1 ratio. Spectra were obtained for all three solutions and buffer subtracted. The expected spectrum in the absence of protein interaction was calculated as the average of the two spectra for the individual protein solutions. Helical content for FITC-cMyb alone was variously estimated as 28, 30, and 37% using the methods of Perez-Iratxeta et al.,[19] Morriset et al.,[20] and Chen et al.,[21] respectively.

CBP KIX (Mus musculus) = CBP KIX (Mus musculus) (UniProt P45481); details: cited from earlier work
Chain of CBP KIX (Mus musculus) (P45481 583-668): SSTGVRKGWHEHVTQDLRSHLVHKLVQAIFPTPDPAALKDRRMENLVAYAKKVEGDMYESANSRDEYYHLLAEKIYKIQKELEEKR

KIX [5] = details: NMR structure of the complex; cited from earlier work
Text: We confirmed this increase in helicity on binding by comparing CD measurements of the individual components and mixtures ...

[6] = system: pseudo-wild-type of KIX with a single point tryptophan mutation in the binding site (and an attached his-tag); details: cited from earlier work
Text: Association kinetics for this complex have recently been reported by Gianni et al., for a pseudo-wild-type of KIX with a single point tryptophan mutation in the binding site (and an attached his-tag).[46] […] After correction for the expected number of molecule collisions, the rate is still temperature dependent (Figure 3), which indicates the presence of an activation barrier that slows the association process. We stop short of interpreting the gradient of this plot (10.9 ± 0.7 kcal/mol) as the enthalpic barrier for folding. First, from CD denaturation studies (Figure S4, Supporting Information), it is clear that even over this narrow range of temperature there are conformatio ...

KIX [7] = details: pH 7, 27 °C; read-out: dissociation constant of unlabeled cMyb by ITC; cited from earlier work
Text: Second, the peptide was still observed to bind to KIX protein. On mixing FITC-cMyb with KIX, a reliable increase in the an ...

barnase = details: with barnase, cited from earlier work
Text: Although these rates are fast, they are nothing remarkable in themselves. […] The most famous example of such rate enhancement is for the two folded proteins barnase and barstar, which have been described as “ultrafast” associating proteins. At low ionic strengths, the reported kon is over 5 × 10^9 M^–1 s^–1; however, extrapolation to infinite ionic strength to obtain an esti ...

[8] = biological target: KIX domain of mouse CBP (residues 586-672) (mouse, UniProt P45481 586-672); assay: fluorescence polarisation; equilibrium anisotropy; 1 uM FITC-cMyb incubated 1 h with varying concentrations of KIX; 100 mM sodium phosphate pH 7.4, 0.05% tween-20; 25 °C; fit to eq 2; details: both partners purified
Chain of KIX domain of mouse CBP (residues 586-672) (P45481 586-672): as the sequence (P45481 586-672) above

koff (KIX domain of mouse CBP [1]; 25 °C, extrapolated from temperature dependence, pH 7.4 100 mM sodium phosphate, read-out: koff extrapolated to 25 °C): 230 ± 20 s⁻¹
kon (KIX domain of mouse CBP [1]; pH 7.4, read-out: kon extrapolated to 25 °C): ~2.2e+07 M⁻¹ s⁻¹
koff (KIX domain of mouse CBP [1]; physiological conditions, expected, read-out: dissociation rate under physiological conditions): > 300 s⁻¹
kon (KIX domain of mouse CBP [2]; 25 °C, from 10 °C basal rate and temperature dependence study, read-out: basal association rate constant estimated at 25 °C): 2.1e+07 M⁻¹ s⁻¹
kon (KIX domain of mouse CBP [2]; pH 7.3, 10 °C, 20 mM MOPS pH 7.30, extrapolated with Debye–Huckel-like approximation (eq 4), read-out: basal association rate constant (infinite ionic strength)): 7.7e+06 M⁻¹ s⁻¹
Molecule: CC[C@H](C)[C@H](NC(=O)[C@H](CCCNC(=N)N)NC(=O)[C@H](CCCCN)NC(=O)[C@H](CCC(=O)O)NC(=O)[C@H](CCCCN)NC(=S)Nc1ccc2c(c1)C(=O)OC21c2ccc(O)cc2Oc2cc(O)ccc21)C(=O)N[C@@H](CCCCN)C(=O)N[C@@H](CCC(=O)O)C(=O)N[C@@H](CC(C)C)C(=O)N[C@@H](CCC(=O)O)C(=O)N[C@@H](CC(C)C)C(=O)N[C@@H](CC(C)C)C(=O)N[C@@H](CC(C)C)C(=O)N[C@@H](CCSC)C(=O)N[C@@H](CO)C(=O)N[C@H](C(=O)N[C@@H](CCC(=O)O)C(=O)N[C@@H](CC(N)=O)C(=O)N[C@@H](CCC(=O)O)C(=O)N[C@@H](CC(C)C)C(=O)N[C@@H](CCCCN)C(=O)NCC(=O)N[C@@H](CCC(N)=O)C(=O)N[C@@H](CCC(N)=O)C(=O)N[C@@H](C)C(=O)N[C@@H](CC(C)C)C(=O)O)[C@@H](C)O [FITC-cMyb]

Molecule: O=C1OC2(c3ccc(O)cc3Oc3cc(O)ccc32)c2ccccc21 [fluoroscein]
protolytic constant (dianion/anion) ([3]; 25 °C): 6.43
fraction as anion ([3]; pH 7.3–7.4, 25 °C): ~10%
fraction as dianion ([3]; pH 7.3–7.4, 25 °C): ~90%

Molecule: KIX: KIX domain of mouse CBP (Uniprot 45481, residues 586–672)
reversibility of thermal denaturation / aggregation ([4]; 10 to 80 °C, indicative of aggregation at higher temperatures): Apparent nonreversibility
secondary structure over ionic strength range ([4]; MOPS buffers, 10 to 750 mM ionic strength, 10 °C): no significant change in the secondary structure
effect of temperature on helical content ([4]; thermal denaturation, pH 7.4 100 mM sodium phosphate, 10 to 80 °C): Helical content was reduced on increasing temperature

Molecule: cMyb transactivation domain (from UniProt P06876)
Kd (CBP KIX (Mus musculus)): 10 µM and 12.5 µM

Molecule: cMyb: 25 amino acid peptide from the TAD of cMyb, unlabeled
amino acids in a helix in the bound form (KIX [5]): 70%
fold lower binding affinity than reported here ([6]; 25 °C, relatively similar buffer conditions, complex with pseudo-wild-type KIX): 3 fold
decrease of dissociation rate on partial helix stabilization by TFE ([6]; TFE): around 5 fold
increase of association rate on partial helix stabilization by TFE ([6]; TFE): around 1.4 fold
kon, Gianni et al. ([6]; compared at 25 °C, pseudo-wild-type his-tagged KIX): (2.5 ± 0.1) × 10^7 M^–1 s^–1
residual α-helical content, unbound state (summary) ([4]; free peptide, pH 7.4 100 mM sodium phosphate): around 30%
Kd (KIX [7]): 10 µM

B1: barstar: two folded proteins barnase and barstar, described as ultrafast associating proteins (protein, UniProt P11540 2-90, looked up)
Barstar: KKAVINGEQIRSISDLHQTLKKELALPEYYGENLDALWDCLTGWVEYPLVLEWRQFEQSKQLTENGAESVLQVFREAKAEGCDITIILS
basal kon, infinite ionic strength (barnase; extrapolated to infinite ionic strength): around 10^5 M^–1 s^–1
kon at low ionic strength (barnase; low ionic strengths): over 5 × 10^9 M^–1 s^–1

Kd [8]: 10.5 ± 0.7 µM
Molecule: {FITC}-KEKRIKELELLLMSTENELKGQQAL (peptide, UniProt P06876 291-315, looked up)

Reference: PMC3807845 (The Journal of Physical Chemistry. B, 2013)
